Reference: ChEMBL document CHEMBL4422664, “2-Benzoylbenzofuran derivatives possessing piperazine linker as anticancer agents” (Bioorg Med Chem Lett, 2019)
pIC50: −log10 of the molar value.

Key:
A549 [1] = assay: Cytotoxicity against human A549 assessed as reduction in cell viability after 48 hrs by MTT assay; assay type: functional, cell-based; conditions: A549, 48 h
HeLa = assay: Cytotoxicity against human HeLa assessed as reduction in cell viability after 48 hrs by MTT assay; assay type: functional, cell-based
SGC-7901 = assay: Cytotoxicity against human SGC7901 assessed as reduction in cell viability after 48 hrs by MTT assay; assay type: functional, cell-based; conditions: SGC-7901, 48 h
HCT-116 = assay: Cytotoxicity against human HCT116 assessed as reduction in cell viability after 48 hrs by MTT assay; assay type: functional, cell-based; conditions: HCT-116, 48 h
MCF7 = assay: Cytotoxicity against human MCF7 assessed as reduction in cell viability after 48 hrs by MTT assay; assay type: functional, cell-based; conditions: MCF7, 48 h
L02 = assay: Cytotoxicity against human L02 assessed as reduction in cell viability after 48 hrs by MTT assay; assay type: cell-based; conditions: L02, 48 h
A549 [2] = assay: Induction of apoptosis in human A549 assessed as early apoptotic cells after 24 to 48 hrs by Annexin V/propidium iodide staining-based flow cytometric analysis; assay type: functional, cell-based
A549 [3] = assay: Induction of apoptosis in human A549 assessed as early apoptotic cells at 1 uM after 24 to 48 hrs by Annexin V/propidium iodide staining-based flow cytometric analysis (reference value: 0.79%); assay type: functional
A549 [4] = assay: Induction of apoptosis in human A549 assessed as late apoptotic cells at 1 uM after 24 to 48 hrs by Annexin V/propidium iodide staining-based flow cytometric analysis (reference value: 0.54%); assay type: functional
A549 [5] = assay: Induction of apoptosis in human A549 assessed as necrotic cells at 1 uM after 24 to 48 hrs by Annexin V/propidium iodide staining-based flow cytometric analysis (reference value: 0.16%); assay type: functional
A549 [6] = assay: Induction of apoptosis in human A549 assessed as viable cells at 1 uM after 24 to 48 hrs by Annexin V/propidium iodide staining-based flow cytometric analysis (reference value: 98.5%); assay type: functional; conditions: read-out: Activity
A549 [7] = assay: Induction of apoptosis in human A549 assessed as early apoptotic cells at 2 uM after 24 to 48 hrs by Annexin V/propidium iodide staining-based flow cytometric analysis (reference value: 0.79%); assay type: functional
A549 [8] = assay: Induction of apoptosis in human A549 assessed as late apoptotic cells at 2 uM after 24 to 48 hrs by Annexin V/propidium iodide staining-based flow cytometric analysis (reference value: 0.54%); assay type: functional
A549 [9] = assay: Induction of apoptosis in human A549 assessed as necrotic cells at 2 uM after 24 to 48 hrs by Annexin V/propidium iodide staining-based flow cytometric analysis (reference value: 0.16%); assay type: functional
A549 [10] = assay: Induction of apoptosis in human A549 assessed as viable cells at 2 uM after 24 to 48 hrs by Annexin V/propidium iodide staining-based flow cytometric analysis (reference value: 98.5%); assay type: functional; conditions: read-out: Activity

Row | Compound | pIC50 (A549 [1]) | pIC50 (HeLa) | pIC50 (SGC-7901) | pIC50 (HCT-116) | pIC50 (MCF7) | pIC50 (L02) | Activity (A549 [2]) | Activity (A549 [3]) | Activity (A549 [4]) | Activity (A549 [5]) | viability at 1 µM (A549 [6]) | Activity (A549 [7]) | Activity (A549 [8]) | Activity (A549 [9]) | viability at 2 µM (A549 [10])
1 | CCN(CC)c1ccc2cc(C(=O)c3ccc(N4CCN(C(=O)CN5CCN(CC(C)=O)CC5)CC4)cc3)oc2c1 | 5.05 | 5.56 | 5.66 | 4.62 | 4.96 | < 4.00 | – | – | – | – | – | – | – | – | –
2 | CCN(CC)c1ccc2cc(C(=O)c3ccc(N4CCN(C(=O)CN5CCN(CC(=O)c6ccc7ccccc7c6)CC5)CC4)cc3)oc2c1 | 4.58 | 4.77 | < 4.40 | < 4.40 | < 4.40 | < 4.00 | – | – | – | – | – | – | – | – | –
3 | C#CCN1CCN(CC(=O)N2CCN(c3ccc(C(=O)c4cc5ccc(N(CC)CC)cc5o4)cc3)CC2)CC1 | < 4.40 | < 4.40 | 4.70 | 4.75 | < 4.40 | < 4.00 | – | – | – | – | – | – | – | – | –
4 | CCN(CC)c1ccc2cc(C(=O)c3ccc(N4CCN(C(=O)CN5CCN(CC(=O)c6ccccc6)CC5)CC4)cc3)oc2c1 | 4.90 | 5.51 | 5.39 | 4.57 | 4.46 | 4.27 | – | – | – | – | – | – | – | – | –
5 | CCN(CC)c1ccc2cc(C(=O)c3ccc(N4CCN(C(=O)CN5CCN(C(=O)c6ccc(F)cc6)CC5)CC4)cc3)oc2c1 | < 4.40 | < 4.40 | < 4.40 | < 4.40 | < 4.40 | < 4.00 | – | – | – | – | – | – | – | – | –
6 | CCN(CC)c1ccc2cc(C(=O)c3ccc(N4CCN(C(=O)CN5CCN(S(=O)(=O)c6ccc(C(F)(F)F)cc6)CC5)CC4)cc3)oc2c1 | < 4.40 | < 4.40 | < 4.40 | 4.49 | 4.76 | 4.77 | – | – | – | – | – | – | – | – | –
7 | CCN(CC)c1ccc2cc(C(=O)c3ccc(N4CCN(C(=O)CN5CCN(Cc6ccc(F)c(F)c6)CC5)CC4)cc3)oc2c1 | 5.26 | 5.19 | 5.75 | 4.58 | 5.04 | 4.99 | – | – | – | – | – | – | – | – | –
8 | CCN(CC)c1ccc2cc(C(=O)c3ccc(N4CCN(C(=O)CN5CCN(S(=O)(=O)c6ccc(OC(F)(F)F)cc6)CC5)CC4)cc3)oc2c1 | < 4.40 | 4.52 | 4.61 | 5.11 | 4.70 | 4.46 | – | – | – | – | – | – | – | – | –
9 | CCN(CC)c1ccc2cc(C(=O)c3ccc(N4CCN(C(=O)CN5CCN(S(=O)(=O)c6ccc(F)cc6)CC5)CC4)cc3)oc2c1 | 4.48 | 4.78 | < 4.40 | < 4.40 | 4.69 | 5.03 | – | – | – | – | – | – | – | – | –
10 | CCN(CC)c1ccc2cc(C(=O)c3ccc(N4CCN(C(=O)CN5CCN(CC(=O)c6ccc(C#N)cc6)CC5)CC4)cc3)oc2c1 | 5.34 | 5.61 | < 4.40 | < 4.40 | 4.93 | < 4.00 | – | – | – | – | – | – | – | – | –
11 | CCN(CC)c1ccc2cc(C(=O)c3ccc(N4CCN(C(=O)CN5CCN(C(=O)CCl)CC5)CC4)cc3)oc2c1 | 5.51 | 5.26 | 5.79 | < 4.40 | < 4.40 | 4.68 | – | – | – | – | – | – | – | – | –
12 | CCN(CC)c1ccc2cc(C(=O)c3ccc(N4CCN(C(=O)CN5CCN(C(=O)/C=C/c6ccccc6)CC5)CC4)cc3)oc2c1 | 5.02 | 5.28 | 5.94 | 5.17 | 4.87 | < 4.00 | – | – | – | – | – | – | – | – | –
13 | CCN(CC)c1ccc2cc(C(=O)c3ccc(N4CCN(C(=O)CN5CCNCC5)CC4)cc3)oc2c1 | 6.49 | 5.87 | 5.91 | 5.73 | 5.27 | < 4.00 | – | – | – | – | – | – | – | – | –
14 | CCN(CC)c1ccc2cc(C(=O)c3ccc(N4CCN(C(=O)CN5CCN(C(=O)c6ccc(C(F)(F)F)cc6)CC5)CC4)cc3)oc2c1 | < 4.40 | < 4.40 | < 4.40 | < 4.40 | < 4.40 | 4.85 | – | – | – | – | – | – | – | – | –
15 | CCN(CC)c1ccc2cc(C(=O)c3ccc(N4CCN(C(=O)CN5CCN(S(=O)(=O)c6ccc(C#N)cc6)CC5)CC4)cc3)oc2c1 | < 4.40 | 5.07 | < 4.40 | 4.44 | < 4.40 | 4.36 | – | – | – | – | – | – | – | – | –
16 | CCN(CC)c1ccc2cc(C(=O)c3ccc(N4CCN(C(=O)CN5CCN(S(=O)(=O)C6CC6)CC5)CC4)cc3)oc2c1 | 4.76 | 4.55 | 4.81 | < 4.40 | < 4.40 | < 4.00 | – | – | – | – | – | – | – | – | –
17 | CCN(CC)c1ccc2cc(C(=O)c3ccc(N4CCN(C(=O)CN5CCN(Cc6ccc(C#N)cc6)CC5)CC4)cc3)oc2c1 | 4.76 | < 4.40 | 4.58 | < 4.40 | < 4.40 | 4.53 | – | – | – | – | – | – | – | – | –
18 | CCOC(=O)CN1CCN(CC(=O)N2CCN(c3ccc(C(=O)c4cc5ccc(N(CC)CC)cc5o4)cc3)CC2)CC1 | < 4.40 | 4.66 | < 4.40 | < 4.40 | < 4.40 | 4.16 | – | – | – | – | – | – | – | – | –
19 | O=c1[nH]cc(F)c(=O)[nH]1 [FLUOROURACIL] | 4.98 | 4.97 | 4.92 | 4.81 | 4.58 | – | – | – | – | – | – | – | – | – | –
20 | CCN(CC)c1ccc2cc(C(=O)c3ccc(N4CCN(C(=O)CN5CCN(CC(=O)c6ccc(OC)cc6)CC5)CC4)cc3)oc2c1 | 5.32 | 4.82 | 5.05 | 4.75 | 4.78 | < 4.00 | – | – | – | – | – | – | – | – | –
21 | CCN(CC)c1ccc2cc(C(=O)c3ccc(N4CCN(C(=O)CN5CCN(Cc6ccc(/C=C/C(=O)OC)cc6)CC5)CC4)cc3)oc2c1 | 5.55 | 5.52 | 6.13 | 5.00 | 5.06 | < 4.00 | Dose-dependent effect | 7.95% | 7.98% | 0.82% | 83.3% | 43.1% | 43.8% | 3.87% | 9.27%
22 | CCN(CC)c1ccc2cc(C(=O)c3ccc(N4CCN(C(=O)CN5CCN(CC(=O)c6ccc(F)cc6)CC5)CC4)cc3)oc2c1 | 6.24 | 5.02 | 5.46 | 4.85 | 4.78 | 4.16 | – | – | – | – | – | – | – | – | –
23 | CCN(CC)c1ccc2cc(C(=O)c3ccc(N4CCN(C(=O)CN5CCN(Cc6ccc(C(F)(F)F)cc6)CC5)CC4)cc3)oc2c1 | 4.70 | < 4.40 | 4.49 | < 4.40 | 4.74 | 5.18 | – | – | – | – | – | – | – | – | –
24 | CCN(CC)c1ccc2cc(C(=O)c3ccc(N4CCN(C(=O)CN5CCN(CC(=O)c6ccc(C)cc6)CC5)CC4)cc3)oc2c1 | 6.06 | 5.77 | < 4.40 | 4.87 | < 4.40 | 4.44 | – | – | – | – | – | – | – | – | –
25 | CCN(CC)c1ccc2cc(C(=O)c3ccc(N4CCN(C(=O)CN5CCN(C(=O)c6cc(Cl)cc(Cl)c6)CC5)CC4)cc3)oc2c1 | 5.17 | 5.09 | 5.57 | 4.55 | 4.79 | < 4.00 | – | – | – | – | – | – | – | – | –
